According to the NIST ThermoML archive (doi:10.1016/j.jct.2015.01.004):
“And” between values parts separate entries of the source, which are not always exact repeats. Identical values can stand only once. ± gives the expanded uncertainty stated by the source.

Test: molar heat capacity at constant pressure; xn = mol fraction of the nth substance listed
Details: 100 kPa

[Si] [silicon] + [Li]
molar heat capacity at constant pressure (2.03 K, Crystal of intercomponent compound 1, relaxation calorimetry, x2 = 0.81): 0.0088 ± 0.0007 J/K/mol
molar heat capacity at constant pressure (2.03 K, Crystal of intercomponent compound 2, relaxation calorimeter, x2 = 0.804): 0.0022 ± 0.0002 J/K/mol
molar heat capacity at constant pressure (2.13 K, Crystal of intercomponent compound 1, relaxation calorimetry, x2 = 0.81): 0.0091 ± 0.0007 J/K/mol
molar heat capacity at constant pressure (2.13 K, Crystal of intercomponent compound 2, relaxation calorimeter, x2 = 0.804): 0.0023 ± 0.0002 J/K/mol
molar heat capacity at constant pressure (2.14 K, Crystal of intercomponent compound 2, relaxation calorimeter, x2 = 0.804): 0.0022 ± 0.0002 J/K/mol
molar heat capacity at constant pressure (2.25 K, Crystal of intercomponent compound 1, relaxation calorimetry, x2 = 0.81): 0.0096 ± 0.0008 J/K/mol
molar heat capacity at constant pressure (2.25 K, Crystal of intercomponent compound 2, relaxation calorimeter, x2 = 0.804): 0.0024 ± 0.0002 J/K/mol and 0.0023 ± 0.0002 J/K/mol
molar heat capacity at constant pressure (2.37 K, Crystal of intercomponent compound 1, relaxation calorimetry, x2 = 0.81): 0.0101 ± 0.0008 J/K/mol
molar heat capacity at constant pressure (2.37 K, Crystal of intercomponent compound 2, relaxation calorimeter, x2 = 0.804): 0.0024 ± 0.0002 J/K/mol and 0.0025 ± 0.0002 J/K/mol
molar heat capacity at constant pressure (2.49 K, Crystal of intercomponent compound 1, relaxation calorimetry, x2 = 0.81): 0.0107 ± 0.0008 J/K/mol
molar heat capacity at constant pressure (2.49 K, Crystal of intercomponent compound 2, relaxation calorimeter, x2 = 0.804): 0.0026 ± 0.0002 J/K/mol
molar heat capacity at constant pressure (2.5 K, Crystal of intercomponent compound 2, relaxation calorimeter, x2 = 0.804): 0.0025 ± 0.0002 J/K/mol
molar heat capacity at constant pressure (2.63 K, Crystal of intercomponent compound 1, relaxation calorimetry, x2 = 0.81): 0.0111 ± 0.0009 J/K/mol
molar heat capacity at constant pressure (2.63 K, Crystal of intercomponent compound 2, relaxation calorimeter, x2 = 0.804): 0.0028 ± 0.0002 J/K/mol and 0.0025 ± 0.0002 J/K/mol
molar heat capacity at constant pressure (2.77 K, Crystal of intercomponent compound 1, relaxation calorimetry, x2 = 0.81): 0.0116 ± 0.0009 J/K/mol
molar heat capacity at constant pressure (2.77 K, Crystal of intercomponent compound 2, relaxation calorimeter, x2 = 0.804): 0.0028 ± 0.0002 J/K/mol
molar heat capacity at constant pressure (2.92 K, Crystal of intercomponent compound 1, relaxation calorimetry, x2 = 0.81): 0.0121 ± 0.001 J/K/mol
molar heat capacity at constant pressure (2.92 K, Crystal of intercomponent compound 2, relaxation calorimeter, x2 = 0.804): 0.0031 ± 0.0003 J/K/mol and 0.003 ± 0.0002 J/K/mol
molar heat capacity at constant pressure (3.08 K, Crystal of intercomponent compound 1, relaxation calorimetry, x2 = 0.81): 0.0126 ± 0.001 J/K/mol
molar heat capacity at constant pressure (3.08 K, Crystal of intercomponent compound 2, relaxation calorimeter, x2 = 0.804): 0.0032 ± 0.0003 J/K/mol and 0.003 ± 0.0002 J/K/mol
molar heat capacity at constant pressure (3.24 K, Crystal of intercomponent compound 1, relaxation calorimetry, x2 = 0.81): 0.0133 ± 0.001 J/K/mol
molar heat capacity at constant pressure (3.24 K, Crystal of intercomponent compound 2, relaxation calorimeter, x2 = 0.804): 0.0035 ± 0.0003 J/K/mol and 0.0032 ± 0.0003 J/K/mol
molar heat capacity at constant pressure (3.41 K, Crystal of intercomponent compound 1, relaxation calorimetry, x2 = 0.81): 0.0135 ± 0.0011 J/K/mol
molar heat capacity at constant pressure (3.41 K, Crystal of intercomponent compound 2, relaxation calorimeter, x2 = 0.804): 0.0036 ± 0.0003 J/K/mol
molar heat capacity at constant pressure (3.6 K, Crystal of intercomponent compound 1, relaxation calorimetry, x2 = 0.81): 0.0141 ± 0.0011 J/K/mol
molar heat capacity at constant pressure (3.6 K, Crystal of intercomponent compound 2, relaxation calorimeter, x2 = 0.804): 0.0039 ± 0.0003 J/K/mol and 0.0036 ± 0.0003 J/K/mol
molar heat capacity at constant pressure (3.79 K, Crystal of intercomponent compound 1, relaxation calorimetry, x2 = 0.81): 0.015 ± 0.0012 J/K/mol
molar heat capacity at constant pressure (3.79 K, Crystal of intercomponent compound 2, relaxation calorimeter, x2 = 0.804): 0.0041 ± 0.0003 J/K/mol and 0.004 ± 0.0003 J/K/mol
molar heat capacity at constant pressure (3.99 K, Crystal of intercomponent compound 1, relaxation calorimetry, x2 = 0.81): 0.0157 ± 0.0012 J/K/mol
molar heat capacity at constant pressure (3.99 K, Crystal of intercomponent compound 2, relaxation calorimeter, x2 = 0.804): 0.0044 ± 0.0004 J/K/mol and 0.0042 ± 0.0003 J/K/mol
molar heat capacity at constant pressure (4.2 K, Crystal of intercomponent compound 1, relaxation calorimetry, x2 = 0.81): 0.0163 ± 0.0013 J/K/mol
molar heat capacity at constant pressure (4.2 K, Crystal of intercomponent compound 2, relaxation calorimeter, x2 = 0.804): 0.0047 ± 0.0004 J/K/mol and 0.0044 ± 0.0004 J/K/mol
molar heat capacity at constant pressure (4.43 K, Crystal of intercomponent compound 1, relaxation calorimetry, x2 = 0.81): 0.0172 ± 0.0014 J/K/mol
molar heat capacity at constant pressure (4.43 K, Crystal of intercomponent compound 2, relaxation calorimeter, x2 = 0.804): 0.0048 ± 0.0004 J/K/mol and 0.005 ± 0.0004 J/K/mol
molar heat capacity at constant pressure (4.66 K, Crystal of intercomponent compound 2, relaxation calorimeter, x2 = 0.804): 0.0051 ± 0.0004 J/K/mol
molar heat capacity at constant pressure (4.67 K, Crystal of intercomponent compound 1, relaxation calorimetry, x2 = 0.81): 0.0175 ± 0.0014 J/K/mol
molar heat capacity at constant pressure (4.67 K, Crystal of intercomponent compound 2, relaxation calorimeter, x2 = 0.804): 0.0052 ± 0.0004 J/K/mol
molar heat capacity at constant pressure (4.91 K, Crystal of intercomponent compound 2, relaxation calorimeter, x2 = 0.804): 0.0056 ± 0.0004 J/K/mol
molar heat capacity at constant pressure (4.92 K, Crystal of intercomponent compound 1, relaxation calorimetry, x2 = 0.81): 0.0182 ± 0.0014 J/K/mol
molar heat capacity at constant pressure (4.92 K, Crystal of intercomponent compound 2, relaxation calorimeter, x2 = 0.804): 0.0054 ± 0.0004 J/K/mol
molar heat capacity at constant pressure (5 K, Crystal of intercomponent compound 1, relaxation calorimetry + DSC, x2 = 0.81): 0.0184 ± 0.0014 J/K/mol
molar heat capacity at constant pressure (5 K, Crystal of intercomponent compound 2, relaxation calorimetry + DSC, x2 = 0.804): 0.0056 ± 0.0005 J/K/mol
molar heat capacity at constant pressure (5.18 K, Crystal of intercomponent compound 1, relaxation calorimetry, x2 = 0.81): 0.0193 ± 0.0015 J/K/mol
molar heat capacity at constant pressure (5.18 K, Crystal of intercomponent compound 2, relaxation calorimeter, x2 = 0.804): 0.006 ± 0.0005 J/K/mol and 0.0057 ± 0.0005 J/K/mol
molar heat capacity at constant pressure (5.46 K, Crystal of intercomponent compound 2, relaxation calorimeter, x2 = 0.804): 0.0064 ± 0.0005 J/K/mol
molar heat capacity at constant pressure (5.47 K, Crystal of intercomponent compound 1, relaxation calorimetry, x2 = 0.81): 0.0201 ± 0.0016 J/K/mol
molar heat capacity at constant pressure (5.47 K, Crystal of intercomponent compound 2, relaxation calorimeter, x2 = 0.804): 0.0061 ± 0.0005 J/K/mol
molar heat capacity at constant pressure (5.76 K, Crystal of intercomponent compound 1, relaxation calorimetry, x2 = 0.81): 0.0206 ± 0.0016 J/K/mol
molar heat capacity at constant pressure (5.76 K, Crystal of intercomponent compound 2, relaxation calorimeter, x2 = 0.804): 0.007 ± 0.0006 J/K/mol and 0.0066 ± 0.0005 J/K/mol
molar heat capacity at constant pressure (6.07 K, Crystal of intercomponent compound 1, relaxation calorimetry, x2 = 0.81): 0.0218 ± 0.0017 J/K/mol
molar heat capacity at constant pressure (6.07 K, Crystal of intercomponent compound 2, relaxation calorimeter, x2 = 0.804): 0.0075 ± 0.0006 J/K/mol and 0.0071 ± 0.0006 J/K/mol
molar heat capacity at constant pressure (6.39 K, Crystal of intercomponent compound 1, relaxation calorimetry, x2 = 0.81): 0.0227 ± 0.0018 J/K/mol
molar heat capacity at constant pressure (6.39 K, Crystal of intercomponent compound 2, relaxation calorimeter, x2 = 0.804): 0.0083 ± 0.0007 J/K/mol and 0.0079 ± 0.0006 J/K/mol
molar heat capacity at constant pressure (6.73 K, Crystal of intercomponent compound 1, relaxation calorimetry, x2 = 0.81): 0.0242 ± 0.0019 J/K/mol
molar heat capacity at constant pressure (6.73 K, Crystal of intercomponent compound 2, relaxation calorimeter, x2 = 0.804): 0.0091 ± 0.0007 J/K/mol and 0.0088 ± 0.0007 J/K/mol
molar heat capacity at constant pressure (7.09 K, Crystal of intercomponent compound 1, relaxation calorimetry, x2 = 0.81): 0.0252 ± 0.002 J/K/mol
molar heat capacity at constant pressure (7.09 K, Crystal of intercomponent compound 2, relaxation calorimeter, x2 = 0.804): 0.0098 ± 0.0008 J/K/mol and 0.01 ± 0.0008 J/K/mol
molar heat capacity at constant pressure (7.47 K, Crystal of intercomponent compound 1, relaxation calorimetry, x2 = 0.81): 0.0267 ± 0.0021 J/K/mol
molar heat capacity at constant pressure (7.47 K, Crystal of intercomponent compound 2, relaxation calorimeter, x2 = 0.804): 0.0113 ± 0.0009 J/K/mol and 0.0109 ± 0.0009 J/K/mol
molar heat capacity at constant pressure (7.87 K, Crystal of intercomponent compound 1, relaxation calorimetry, x2 = 0.81): 0.0284 ± 0.0022 J/K/mol
molar heat capacity at constant pressure (7.87 K, Crystal of intercomponent compound 2, relaxation calorimeter, x2 = 0.804): 0.0126 ± 0.001 J/K/mol and 0.0123 ± 0.001 J/K/mol
molar heat capacity at constant pressure (8.29 K, Crystal of intercomponent compound 2, relaxation calorimeter, x2 = 0.804): 0.0143 ± 0.0011 J/K/mol and 0.0139 ± 0.0011 J/K/mol
molar heat capacity at constant pressure (8.3 K, Crystal of intercomponent compound 1, relaxation calorimetry, x2 = 0.81): 0.0304 ± 0.0024 J/K/mol
molar heat capacity at constant pressure (8.74 K, Crystal of intercomponent compound 1, relaxation calorimetry, x2 = 0.81): 0.0327 ± 0.0026 J/K/mol
molar heat capacity at constant pressure (8.74 K, Crystal of intercomponent compound 2, relaxation calorimeter, x2 = 0.804): 0.016 ± 0.0013 J/K/mol and 0.0162 ± 0.0013 J/K/mol
molar heat capacity at constant pressure (9.2 K, Crystal of intercomponent compound 1, relaxation calorimetry, x2 = 0.81): 0.0351 ± 0.0028 J/K/mol
molar heat capacity at constant pressure (9.2 K, Crystal of intercomponent compound 2, relaxation calorimeter, x2 = 0.804): 0.0183 ± 0.0014 J/K/mol and 0.0187 ± 0.0015 J/K/mol
molar heat capacity at constant pressure (9.69 K, Crystal of intercomponent compound 2, relaxation calorimeter, x2 = 0.804): 0.0216 ± 0.0017 J/K/mol and 0.0208 ± 0.0016 J/K/mol
molar heat capacity at constant pressure (9.7 K, Crystal of intercomponent compound 1, relaxation calorimetry, x2 = 0.81): 0.038 ± 0.003 J/K/mol
molar heat capacity at constant pressure (10 K, Crystal of intercomponent compound 1, relaxation calorimetry + DSC, x2 = 0.81): 0.0403 ± 0.0032 J/K/mol
molar heat capacity at constant pressure (10 K, Crystal of intercomponent compound 2, relaxation calorimetry + DSC, x2 = 0.804): 0.0233 ± 0.002 J/K/mol
molar heat capacity at constant pressure (10.22 K, Crystal of intercomponent compound 1, relaxation calorimetry, x2 = 0.81): 0.0412 ± 0.0032 J/K/mol
molar heat capacity at constant pressure (10.22 K, Crystal of intercomponent compound 2, relaxation calorimeter, x2 = 0.804): 0.0245 ± 0.0019 J/K/mol and 0.025 ± 0.002 J/K/mol
molar heat capacity at constant pressure (10.75 K, Crystal of intercomponent compound 1, relaxation calorimetry, x2 = 0.81): 0.0449 ± 0.0035 J/K/mol
molar heat capacity at constant pressure (10.75 K, Crystal of intercomponent compound 2, relaxation calorimeter, x2 = 0.804): 0.0286 ± 0.0022 J/K/mol and 0.0291 ± 0.0023 J/K/mol
molar heat capacity at constant pressure (11.32 K, Crystal of intercomponent compound 1, relaxation calorimetry, x2 = 0.81): 0.0492 ± 0.0039 J/K/mol
molar heat capacity at constant pressure (11.32 K, Crystal of intercomponent compound 2, relaxation calorimeter, x2 = 0.804): 0.0342 ± 0.0027 J/K/mol and 0.0335 ± 0.0026 J/K/mol
molar heat capacity at constant pressure (11.93 K, Crystal of intercomponent compound 1, relaxation calorimetry, x2 = 0.81): 0.0547 ± 0.0043 J/K/mol
molar heat capacity at constant pressure (11.93 K, Crystal of intercomponent compound 2, relaxation calorimeter, x2 = 0.804): 0.0403 ± 0.0032 J/K/mol and 0.0398 ± 0.0031 J/K/mol
molar heat capacity at constant pressure (12.56 K, Crystal of intercomponent compound 1, relaxation calorimetry, x2 = 0.81): 0.0613 ± 0.0048 J/K/mol
